Key:
[1] = molecular target: T1, Btk enzyme (His-tagged, full-length) (Homo sapiens, UniProt Q06187); assay: Bruton's Tyrosine Kinase (Btk) Inhibition Assay (33P filtration capture); format: biochemical; conditions: 100 μM ATP, 30 μM biotinylated SH2 peptide substrate, 30 min at 30° C.
T1 construct: 5-10 nM Btk enzyme (His-tagged, full-length); His
Excerpt: The assay is a capture of radioactive ^33P phosphorylated product through filtration. The interactions of Btk, biotinylated SH2 peptide substrate (Src homology), and ATP lead to phosphorylation of the peptide substrate. Biotinylated product is bound streptavidin sepharose beads. All bound, radiolabeled products are detected by scintillation counter.
Plates assayed are 96-well polypropylene (Greiner) and 96-well 1.2 μm hydrophilic PVDF filter plates (Millipore). Concentrations reported here are final assay concentrations: 10-100 μM compounds in DMSO (Burdick and Jackson), 5-10 nM Btk enzyme (His-tagged, full-length), 30 μM peptide substrate (Biotin-Aca-AAAEEIYGEI-NH2), 100 μM ATP (Sigma), 8 mM imidazole (Sigma, pH 7.2), 8 mM glycerol-2-phosphate (Sigma), 200 μM EGTA (Roche Diagnostics), 1 mM MnCl2 (Sigma), 20 mM MgCl2 (Sigma), 0.1 mg/ml BSA (Sigma), 2 mM DTT (Sigma), 1 μCi ^33P ATP (Amersham), 20% streptavidin sepharose beads (Amersham), 50 mM EDTA (Gibco), 2 M NaCl (Gibco), 2 M NaCl w/1% phosphoric acid (Gibco), microscint-20 (Perkin Elmer).
IC50 determinations are calculated from 10 data points per compound utilizing data produced from a standard 96-well plate assay template. One control compound and seven unknown inhibitors were tested on each plate and each plate was run twice. Typically, compounds were diluted in half-log starting at 100 μM and ending at 3 nM. The control compound was staurosporine. Background was counted in the absence of peptide substrate. Total activity was determined in the presence of peptide substrate. The following protocol was used to determine Btk inhibition.
1) Sample preparation: The test compounds were diluted at half-log increments in assay buffer (imidazole, glycerol-2-phosphate, EGTA, MnCl2, MgCl2, BSA).
2) Bead preparation • a.) rinse beads by centrifuging at 500 g • b.) reconstitute the beads with PBS and EDTA to produce a 20% bead slurry
3) Pre-incubate reaction mix without substrate (assay buffer, DTT, ATP, P ATP) and mix with substrate (assay buffer, DTT, ATP, ^33P ATP, peptide substrate) 30° C. for 15 min.
4) To start assay, pre-incubate 10 μL Btk in enzyme buffer (imidazole, glycerol-2-phosphate, BSA) and 10 μL of test compounds for 10 min at RT.
5) Add 30 μL reaction mixture without or with substrate to Btk and compounds.
6) Incubate 50 μL total assay mix for 30 min at 30° C.
7) Transfer 40 μL of assay to 150 μL bead slurry in filter plate to stop reaction.
8) Wash filter plate after 30 min, with following steps • a. 3×250 μL NaCl • b. 3×250 μL NaCl containing 1% phosphoric acid • c. 1×250 μL H2O
9) Dry plate for 1 h at 65° C. or overnight at RT
10) Add 50 μL microscint-20 and count ^33P cpm on scintillation counter.
Calculate percent activity from raw data in cpm percent activity=(sample−bkg)/(total activity−bkg)×100
Calculate IC50 from percent activity, using one-site dose response sigmoidal model y=A+((B−A)/(1+((x/C)^D)))) • x=cmpd conc, y=% activity, A=min, B=max, C=IC50, D=1 (hill slope)

T1 sequence (Q06187 whole entry): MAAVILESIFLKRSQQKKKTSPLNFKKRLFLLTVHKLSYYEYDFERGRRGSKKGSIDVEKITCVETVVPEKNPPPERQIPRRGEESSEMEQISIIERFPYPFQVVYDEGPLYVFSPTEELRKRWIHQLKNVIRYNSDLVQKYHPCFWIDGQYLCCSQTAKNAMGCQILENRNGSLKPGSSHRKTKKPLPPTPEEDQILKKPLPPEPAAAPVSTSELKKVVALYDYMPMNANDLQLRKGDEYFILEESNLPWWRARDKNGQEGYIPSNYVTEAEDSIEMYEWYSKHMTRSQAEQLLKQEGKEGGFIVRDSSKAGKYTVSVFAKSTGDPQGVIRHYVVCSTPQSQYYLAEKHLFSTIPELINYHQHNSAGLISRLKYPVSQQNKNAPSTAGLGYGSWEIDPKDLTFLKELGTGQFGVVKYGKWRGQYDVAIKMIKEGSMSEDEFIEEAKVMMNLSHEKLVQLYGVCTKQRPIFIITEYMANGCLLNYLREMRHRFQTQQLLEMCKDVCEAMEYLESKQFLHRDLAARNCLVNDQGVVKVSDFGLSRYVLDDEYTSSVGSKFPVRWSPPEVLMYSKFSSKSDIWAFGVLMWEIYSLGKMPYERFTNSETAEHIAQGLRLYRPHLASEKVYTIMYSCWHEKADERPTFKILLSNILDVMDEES

| Compound | IC50 [1] [nM] | melting point [°C] |
| --- | --- | --- |
| CCNC(=O)Nc1cc(-c2cccc(NC(=O)c3ccc(C(C)(C)C)cc3)c2C)nn2ccnc12 [Example I-7, 4-tert-Butyl-N-{3-[8-(3-ethyl-ureido)-imidazo[1,2-b]pyridazin-6-yl]-2-methyl-phenyl}-benzamide] | 22 | 181 to 183 |
| CNC(=O)Nc1cc(-c2cccc(NC(=O)c3ccc(C(C)(C)C)cc3)c2C)nn2ccnc12 [Example I-8, 4-tert-Butyl-N-{2-methyl-3-[8-(3-methyl-ureido)-imidazo[1,2-b]pyridazin-6-yl]-phenyl}-benzamide] | 10 | 163 to 165 |
| Cc1c(NC(=O)c2ccc(C(C)(C)C)cc2)cccc1-c1cc(NC(=O)NCCO)c2nccn2n1 [Example I-11, 4-tert-Butyl-N-(3-{8-[3-(2-hydroxy-ethyl)-ureido]-imidazo[1,2-b]pyridazin-6-yl}-2-methyl-phenyl)-benzamide] | 19 | 183 to 184 |
| O=C(Nc1cccc(-c2cc(Nc3ccc(C(=O)N4CCOCC4)cn3)c3nccn3n2)c1CO)c1ccc(C2CC2)cc1 [Example I-43, 4-Cyclopropyl-N-(2-hydroxymethyl-3-{8-[5-(morpholine-4-carbonyl)-pyridin-2-ylamino]-imidazo[1,2-b]pyridazin-6-yl}-phenyl)-benzamide] | 13 | – |
| Cn1ccc(Nc2cc(-c3cccc(NC(=O)c4ccc(C5CC5)cc4)c3CO)nn3ccnc23)n1 [Example I-45, 4-Cyclopropyl-N-{2-hydroxymethyl-3-[8-(1-methyl-1H-pyrazol-3-ylamino)-imidazo[1,2-b]pyridazin-6-yl]-phenyl}-benzamide] | 15 | – |
| CCNC(=O)Nc1cc(-c2cccc(NC(=O)c3ccc(C(C)(C)C)cc3)c2C)cn2ccnc12 [Example I-53, 4-tert-Butyl-N-{3-[8-(3-ethyl-ureido)-imidazo[1,2-a]pyridin-6-yl]-2-methyl-phenyl}-benzamide] | 13 | – |
| CNC(=O)Nc1cc(-c2cccc(NC(=O)c3ccc(C(C)(C)C)cc3)c2C)cn2ccnc12 [Example I-56, 4-tert-Butyl-N-{2-methyl-3-[8-(3-methyl-ureido)-imidazo[1,2-a]pyridin-6-yl]-phenyl}-benzamide] | 24 | 148 to 149 |
| Cc1c(NC(=O)c2ccc(C(C)(C)C)cc2)cccc1-c1cc(NC(=O)NCCCN(C)C)c2nccn2c1 [Example I-77, 4-tert-Butyl-N-(3-{8-[3-(3-dimethylamino-propyl)-ureido]-imidazo[1,2-a]pyridin-6-yl}-2-methyl-phenyl)-benzamide] | 18 | 182.7 to 199.7 |
| Cc1c(NC(=O)c2ccc(C(C)(C)C)cc2)cccc1-c1cc(NC(=O)NCCCN2CCN(C)CC2)c2nccn2c1 [Example I-94, 4-tert-Butyl-N-[2-methyl-3-(8-{3-[3-(4-methyl-piperazin-1-yl)-propyl]-ureido}-imidazo[1,2-a]pyridin-6-yl)-phenyl]-benzamide] | – | 167 to 168 |
| Cc1c(NC(=O)c2ccc(C(O)(C(F)(F)F)C(F)(F)F)cc2)cccc1-c1cc(NC(=O)NCCCN(C)C)c2nccn2c1 [Example I-98, N-(3-{8-[3-(3-Dimethylamino-propyl)-ureido]-imidazo[1,2-a]pyridin-6-yl}-2-methyl-phenyl)-4-(2,2,2-trifluoro-1-hydroxy-1-trifluoromethyl-ethyl)-benzamide] | – | 198 to 200 |
| CNC(=O)Nc1cc(-c2cccc(CC(=O)NCC#CC(C)(C)C)c2)cn2ccnc12 [Example I-99, N-(4,4-Dimethyl-pent-2-ynyl)-2-{3-[8-(3-methyl-ureido)-imidazo[1,2-a]pyridin-6-yl]-phenyl}-acetamide] | – | 129 to 130 |
| Cc1c(NC(=O)NC2CCC(S(C)(=O)=O)CC2)cccc1-c1cc(Nc2ccc(C(=O)N3CCOCC3)cn2)c2nccn2c1 (centres unmarked) [Example I-218, 1-(4-Methanesulfonyl-cyclohexyl)-3-(2-methyl-3-{8-[5-(morpholine-4-carbonyl)-pyridin-2-ylamino]-imidazo[1,2-a]pyridin-6-yl}-phenyl)-urea] | 10 | – |

Source: US8426441B2, “Inhibitors of bruton's tyrosine kinase” (Roche Palo Alto LLC, priority 2007, dated 2013)
